Measured values: article PMC5435703 (Scientific Reports, 2017)
Converted amounts (≈) assume the structure as drawn. Like-named read-outs stand apart in the source and are kept apart here. Marks after values point to notes of the source that are not given here.

Legend:
S. aureus = tested on: S. aureus; design: method as in PMID 24389824; conditions: initial studies; cited from earlier work
MRSE 35984 [1] = assay: MIC broth microdilution assay; format: cell-based, Staphylococcus epidermidis
VRE 700221 [2] = assay: MIC broth microdilution assay; format: cell-based, Enterococcus faecium
MRSA-1707 biofilms = assay: CBD pulse biofilm eradication experiment; format: cell-based, Staphylococcus aureus; conditions: two subsequent 24 hour compound treatment phases
MRSA BAA-1707 [3] = assay: Calgary Biofilm Device (CBD) MBC/MBEC assay; format: cell-based, Staphylococcus aureus
MRSA BAA-1707 [4] = assay: MIC broth microdilution assay; format: cell-based, Staphylococcus aureus
VRE 700221 [5] = assay: Calgary Biofilm Device (CBD) MBC/MBEC assay; format: cell-based, Enterococcus faecium; conditions: CBD
MRSA-2 = assay: MIC broth microdilution assay; format: cell-based, Staphylococcus aureus; conditions: Table 1, read-out: MIC MRSA-2
MRSE 35984 [6] = assay: Calgary Biofilm Device (CBD) MBC/MBEC assay; format: cell-based, Staphylococcus epidermidis; conditions: CBD
MRSA-1 = assay: MIC broth microdilution assay; format: cell-based, Staphylococcus aureus; conditions: for MIC: Staphylococcus aureus, MRSA
MRSA BAA-1707 [7] = assay: MIC assay with metal(II) cation co-treatment; format: cell-based, Staphylococcus aureus
MRSA, MRSE and VRE = assay: MIC assays, summary over strains; format: cell-based; conditions: read-out: MIC against all strains tested against
[8] = Table 1, read-out: MIC MRSE 35984
[9] = Table 3, read-out: MRSE 35984 MIC
[10] = CBD, planktonic killing, 24 hours treatment, read-out: MRSA BAA-1707 MBC
[11] = Table 1, three independent experiments, read-out: MIC MRSA BAA-1707

In the case of `Oc1c(Br)ccc2nc3ccccc3nc12` [2-bromo-1-hydroxyphenazine, reference compound], the “MIC S. aureus” value (S. aureus) is given as 6.25 µM (≈ 1.72 µg/mL).

With `CCCCCCCCCCCCCCCC[N+](C)(C)Cc1ccccc1.[Cl-]` [BAC-16, reference compound] the MIC (MRSE 35984 [1]; [8]) was 1.56 µM, the MIC (MRSE 35984 [1]; [9]) was 1.56 µM and the MIC (VRE 700221 [2]; Table 1, read-out: MIC VRE 700221) was 3.13 µM. The MIC (VRE 700221 [2]; Table 3, read-out: VRE 700221 MIC) was 3.13 µM, the “MBEC, pulse treatment” value (MRSA-1707 biofilms) was 25 µM and the “MRSA BAA-1707 MBEC” value (MRSA BAA-1707 [3]; CBD, biofilm eradication, 24 hours treatment) was 15.6 µM. It also gave an MBC (MRSA BAA-1707 [3]; [10]) of 31.3 µM, an MIC (MRSA BAA-1707 [4]; [11]) of 1.56 µM and an MIC (MRSA BAA-1707 [4]; Table 3, read-out: MRSA BAA-1707 MIC) of 1.56 µM. The “VRE 700221 MBEC” value (VRE 700221 [5]; biofilm eradication) was 3.0 µM and the MBC (VRE 700221 [5]; planktonic killing, read-out: VRE 700221 MBC) was 5.9 µM.

For `c1ccc(CN(CCN(Cc2ccccn2)Cc2ccccn2)Cc2ccccn2)nc1` [TPEN, reference compound], the MIC (MRSE 35984 [1]; [8]) was 12.5 µM (≈ 5.31 µg/mL), the MIC (MRSE 35984 [1]; [9]) was 12.5 µM (≈ 5.31 µg/mL) and the MIC (MRSA-2) was 50 µM (≈ 21.2 µg/mL). The “MRSE 35984 MBEC” value (MRSE 35984 [6]; biofilm eradication) was > 2000 µM, the MBC (MRSE 35984 [6]; planktonic killing, read-out: MRSE 35984 MBC) was 250 µM (≈ 106 µg/mL) and the “MIC MRSA-1” value (MRSA-1; Table 1) was 75^a µM. For the same compound, the MBC (MRSA BAA-1707 [3]; [10]) was 375 µM (≈ 159 µg/mL), the “MRSA-1707 Biofilm Eradication MBEC” value (MRSA BAA-1707 [3]; Figure 7A, single CBD plate) was > 2000 µM and the MBC (MRSA BAA-1707 [3]; Figure 7A, single CBD plate, read-out: MRSA-1707 Planktonic Eradication MBC) was 250 µM (≈ 106 µg/mL). The “MRSA Biofilm Eradication MBEC” value (MRSA BAA-1707 [3]; supplement page 27, first CBD plate) was > 2000 µM, the MBC (MRSA BAA-1707 [3]; supplement page 27, first CBD plate, read-out: MRSA Planktonic Killing MBC) was 250 µM (≈ 106 µg/mL) and the MIC (MRSA BAA-1707 [7]; Table 2, MRSA BAA-1707, no metal(II) cation added) was 46.9^a µM. The MIC (MRSA BAA-1707 [7]; copper(II) at 200 µM co-treatment, read-out: MIC w/Cu2+) was 500 µM, the MIC (MRSA BAA-1707 [7]; iron(II) at 200 µM co-treatment, read-out: MIC w/Fe2+) was 125 µM and the MIC (MRSA BAA-1707 [7]; magnesium(II) at 200 µM co-treatment, read-out: MIC w/Mg2+) was 62.5 µM. For the same compound, the MIC (MRSA BAA-1707 [7]; zinc(II) at 200 µM co-treatment, read-out: MIC w/Zn2+) was 250 µM, the “Hemolysis at 200 µM (%)” value (human red blood cells) was ≤1% and the “MIC MRSA BAA-1707” value (MRSA BAA-1707 [4]; Table 1, three independent experiments) was 46.9^a µM. The “MRSA BAA-1707 MIC” value (MRSA BAA-1707 [4]; Table 3) was 46.9^a µM.

With `Oc1c(Br)cc(Br)c2nc3c(O)c(Br)cc(Br)c3nc12` [HP 15] the MIC (MRSE 35984 [1]; Staphylococcus epidermidis, MRSE, Table 1, read-out: MIC MRSE 35984) was > 50 µM, the MIC (MRSA-2; Staphylococcus aureus, MRSA) was > 50 µM and the MIC (VRE 700221 [2]; Enterococcus, VRE, Table 1, read-out: MIC VRE 700221) was > 50 µM. The MIC (MRSA, MRSE and VRE) was > 50 µM, the MIC (MRSA-1; Table 1, read-out: MIC MRSA-1) was > 50 µM and the MIC (MRSA-1; single plate shown as picture, read-out: MIC (µM), MIC Assay Against MRSA-1) was > 50 µM. The MIC (MRSA BAA-1707 [4]; Staphylococcus aureus, Table 1, three independent experiments, read-out: MIC MRSA BAA-1707) was > 50 µM and the MIC (MRSA BAA-1707 [4]; [11]) was >50 µM.
